Measurements as given in patent US9695155B2, “Herbicidal substituted pyrimidinyloxy benzene compounds” (E. I. DU PONT DE NEMOURS AND COMPANY, priority 2013, dated 2017).

Assays:
barnyardgrass [1] = test: Test A preemergence; format: in vivo, Echinochloa crus-galli; settings: 1000 g ai/ha, 0 to 100 scale, 0 no effect, 100 complete control
Excerpt: (§1) Seeds of plant species selected from barnyardgrass (Echinochloa crus-galli), kochia (Kochia scoparia), ragweed (common ragweed, Ambrosia elatior), Italian ryegrass (Lolium multiflorum), large (Lg) crabgrass (Digitaria sanguinalis), giant foxtail (Setaria faberii), morningglory (Ipomoea spp.), pigweed (Amaranthus retroflexus), velvetleaf (Abutilon theophrasti), wheat (Triticum aestivum), and corn (Zea mays) were planted into a blend of loam soil and sand and treated preemergence with a directed soil spray using test chemicals formulated in a non-phytotoxic solvent mixture which included a surfactant.
(§2) At the same time, plants selected from these crop and weed species and also blackgrass (Alopecurus myosuroides), and galium (catchweed bedstraw, Galium aparine) were planted in pots containing the same blend of loam soil and sand and treated with postemergence applications of test chemicals formulated in the same manner. Plants ranged in height from 2 to 10 cm and were in the one- to two-leaf stage for the postemergence treatment. Treated plants and untreated controls were maintained in a greenhouse for approximately 10 days, after which time all treated plants were compared to untreated controls and visually evaluated for injury. Plant response ratings, summarized in Table A, are based on a 0 to 100 scale where 0 is no effect and 100 is complete control. A dash (-) response means no test result.

large (Lg) crabgrass [2] = test: Test A preemergence; format: in vivo, Digitaria sanguinalis; settings: 1000 g ai/ha, 0 to 100 scale, 0 no effect, 100 complete control
Excerpt: as §1, §2

giant foxtail [3] = test: Test A preemergence; format: in vivo, Setaria faberii; settings: 1000 g ai/ha, 0 to 100 scale, 0 no effect, 100 complete control, approx. 10 days
Excerpt: as §1, §2

morningglory [4] = test: Test A preemergence; format: in vivo, Ipomoea spp.; settings: 1000 g ai/ha, 0 to 100 scale, 0 no effect, 100 complete control, approx. 10 days
Excerpt: as §1, §2

pigweed [5] = test: Test A preemergence; format: in vivo, Amaranthus retroflexus; settings: 1000 g ai/ha, 0 to 100 scale, 0 no effect, 100 complete control, approx. 10 days
Excerpt: as §1, §2

velvetleaf [6] = test: Test A preemergence; format: in vivo, Abutilon theophrasti; settings: 1000 g ai/ha, 0 to 100 scale, 0 no effect, 100 complete control, approx. 10 days
Excerpt: as §1, §2

wheat [7] = test: Test A preemergence; format: in vivo, Triticum aestivum; settings: 1000 g ai/ha, 0 to 100 scale, 0 no effect, 100 complete control, approx. 10 days
Excerpt: as §1, §2

corn [8] = test: Test A preemergence; format: in vivo, Zea mays; settings: 1000 g ai/ha, 0 to 100 scale, 0 no effect, 100 complete control
Excerpt: as §1, §2

barnyardgrass [9] = test: Test A postemergence; format: in vivo, Echinochloa crus-galli; settings: 1000 g ai/ha, 0 to 100 scale, 0 no effect, 100 complete control
Excerpt: as §1, §2

large (Lg) crabgrass [10] = test: Test A postemergence; format: in vivo, Digitaria sanguinalis; settings: 1000 g ai/ha, 0 to 100 scale, 0 no effect, 100 complete control
Excerpt: as §1, §2

giant foxtail [11] = test: Test A postemergence; format: in vivo, Setaria faberii; settings: 1000 g ai/ha, 0 to 100 scale, 0 no effect, 100 complete control
Excerpt: as §1, §2

morningglory [12] = test: Test A postemergence; format: in vivo, Ipomoea spp.; settings: 1000 g ai/ha, 0 to 100 scale, 0 no effect, 100 complete control
Excerpt: as §1, §2

pigweed [13] = test: Test A postemergence; format: in vivo, Amaranthus retroflexus; settings: 1000 g ai/ha, 0 to 100 scale, 0 no effect, 100 complete control
Excerpt: as §1, §2

velvetleaf [14] = test: Test A postemergence; format: in vivo, Abutilon theophrasti; settings: 1000 g ai/ha, 0 to 100 scale, 0 no effect, 100 complete control
Excerpt: as §1, §2

wheat [15] = test: Test A postemergence; format: in vivo, Triticum aestivum; settings: 1000 g ai/ha, 0 to 100 scale, 0 no effect, 100 complete control
Excerpt: as §1, §2

corn [16] = test: Test A postemergence; format: in vivo, Zea mays; settings: 1000 g ai/ha, 0 to 100 scale, 0 no effect, 100 complete control
Excerpt: as §1, §2

Structure (SMILES) | Barnyardgrass plant response rating (barnyardgrass [1]; approx. 10 days) | Crabgrass, Large plant response rating (large (Lg) crabgrass [2]; approx. 10 days) | Foxtail, Giant plant response rating (giant foxtail [3]) | Morningglory plant response rating (morningglory [4]) | Pigweed plant response rating (pigweed [5]) | Velvetleaf plant response rating (velvetleaf [6]) | Wheat plant response rating (wheat [7]) | Corn plant response rating (corn [8]; approx. 10 days) | Plant response rating, Barnyardgrass (barnyardgrass [9]) | Plant response rating, Crabgrass, Large (large (Lg) crabgrass [10]) | Plant response rating, Foxtail, Giant (giant foxtail [11]) | Plant response rating, Morningglory (morningglory [12]) | Plant response rating, Pigweed (pigweed [13]) | Plant response rating, Velvetleaf (velvetleaf [14]) | Plant response rating, Wheat (wheat [15]) | Plant response rating, Corn (corn [16]) | Plant response rating, Barnyardgrass (barnyardgrass [1]) | Plant response rating, Crabgrass, Large (large (Lg) crabgrass [2]) | Plant response rating, Corn (corn [8])
Clc1cnc(Oc2ccccc2-n2cc(Cl)nn2)nc1 [Compound 224] | 100 | 100 | 100 | 90 | 100 | 100 | 60 | 40 | 90 | 80 | 90 | 100 | 100 | 100 | 60 | 50 | – | – | –
Fc1cnc(Oc2ccccc2-n2cccn2)nc1 [Compound 14] | – | – | 90 | 20 | 100 | 90 | 20 | – | 20 | 30 | 40 | 70 | 100 | 90 | 20 | 20 | 30 | 90 | 0
N#Cc1cnn(-c2ccccc2Oc2ncc(Cl)cn2)n1 [Compound 55] | – | – | 90 | 0 | 90 | 100 | 0 | – | 10 | 40 | 60 | 80 | 90 | 100 | 0 | 20 | 40 | 90 | 0
